Test system: KG1a LSCs and bulk tumour cells
Test: γH2A.X phosphorylation assay (DNA damage) in purified LSCs and bulk tumour cells
Assay type: cell-based
Details: 2-hour exposure, hypoxic conditions (5% O2), in words
Experimental: KG1a cells were grown under hypoxic conditions for 7 days in order to generate 10^7 cells and increase the percentage of cells expressing an LSC phenotype. Subsequently, Lin^−/CD34^+/CD38^−/CD123^+ LSCs and Lin^−/CD34^+/CD38^+/CD123^+ ‘bulk’ tumour cells were purified by high speed cell sorting using a FACS Melody cell sorter (Becton Dickenson) and were placed back into hypoxic cell culture conditions prior to the addition of clofarabine or clofarabine diphosphate phosphoramidates.
Phosphorylation of the histone variant γH2A.X occurs as a rapid response to double strand DNA breaks. The γH2A.X Phosphorylation Assay Kit (Flow cytometry) is a cell-based assay formatted for flow cytometric detection of levels of phosphorylated Histone γH2A.X (Merck, UK). LSC and ‘bulk tumour’ cells were cultured in 96-well plates in the presence of clofarabine or clofarabine diphosphate phosphoramidates. After 2 h of exposure to drug, the cells were harvested by centrifugation and then fixed and permeabilised in preparation for staining and detection. Histone γH2A.X phosphorylated at serine 139 is detected by the addition of the anti-phospho-Histone γH2A.X conjugated to APC. Cells were then run on a flow cytometer to quantitate the number of cells staining positive for phosphorylated Histone γH2A.X.

Compound: Nc1nc(Cl)nc2c1ncn2[C@@H]1O[C@H](CO)[C@@H](O)[C@@H]1F [Clofarabine, reference compound]
- DNA damage in LSCs compared with bulk tumour cells (γH2A.X phosphorylation): level of DNA damage in the LSCs was significantly lower than the bulk tumour cells
